Data published in patent US12239729B2, “TRPV3 agonists for the treatment of skin conditions” (Soricimed Biopharma Inc., priority 2012, dated 2025).
“Also recorded” adds a separate entry of the source. Peptide text beside a SMILES is read from it.

Experiments:
[1] = target: T1, TRPV3 channels expressed in HEK-293 cells (Homo sapiens, UniProt Q8NET8); test: Patch-clamp testing of TRPV3 channel activity in transfected HEK-293 cells; type: cell-based
T1 construct: expressed in transfected cells; host or cells: HEK-293 cells, transient transfection
T1 sequence (Q8NET8 1-790): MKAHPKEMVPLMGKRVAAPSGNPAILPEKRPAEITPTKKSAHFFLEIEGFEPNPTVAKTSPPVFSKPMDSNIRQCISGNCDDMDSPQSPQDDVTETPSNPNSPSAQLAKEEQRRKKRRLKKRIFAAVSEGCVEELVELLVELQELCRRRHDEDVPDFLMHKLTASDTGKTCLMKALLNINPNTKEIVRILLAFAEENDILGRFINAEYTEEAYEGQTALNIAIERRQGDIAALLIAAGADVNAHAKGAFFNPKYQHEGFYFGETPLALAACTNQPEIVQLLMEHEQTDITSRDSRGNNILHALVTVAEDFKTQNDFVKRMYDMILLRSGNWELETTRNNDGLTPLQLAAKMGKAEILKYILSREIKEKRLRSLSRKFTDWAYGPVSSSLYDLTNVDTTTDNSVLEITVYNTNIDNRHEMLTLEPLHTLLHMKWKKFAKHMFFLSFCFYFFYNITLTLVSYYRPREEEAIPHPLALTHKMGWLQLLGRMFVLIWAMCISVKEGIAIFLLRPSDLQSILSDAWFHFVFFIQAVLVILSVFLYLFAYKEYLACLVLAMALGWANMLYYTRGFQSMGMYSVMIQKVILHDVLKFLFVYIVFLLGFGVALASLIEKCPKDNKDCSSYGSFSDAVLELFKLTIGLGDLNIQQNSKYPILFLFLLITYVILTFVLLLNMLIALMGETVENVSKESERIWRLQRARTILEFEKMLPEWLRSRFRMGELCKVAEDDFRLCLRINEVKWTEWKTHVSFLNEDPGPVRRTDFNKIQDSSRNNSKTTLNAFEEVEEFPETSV
Description: SOR-C13, SOR-C27 and SOR-N54 were tested using a patch clamp screen to determine whether the peptide had any effect on the channel activity of TRPV3. Ruthenium red, a known antagonist of TRPV3 and 2-Aminoethoxydiphenyl Borate (2-APB) a known activator of TRPV3 were used as controls.
HEK 293 cells were maintained in ϕ30 mm cell culture plate in DMEM media supplemented with 10% fetal bovine serum and penicillin/streptomycin. Cells were grown in a humidified atmosphere of 95% air/5% CO2 at 37° C. in a cell culture incubator.
The cells from 70-90% confluence were prepared for transfection. For transient expression in HEK-293 cells 1 μg plasmid cDNA and pEGFP (in vivo reporter of gene expression) were used.
Recordings were performed at 20˜23° C. Currents were sampled using Digidata 1440A, amplified, and filtered at 2 kHz using Axopatch 200B, then acquired and analyzed using pClamp 10.0 (Molecular Devices, Sunny vales, CA, USA).
The pipette solution and bath solution contained 140 mM CsCl, 4 mM MgCl2, 10 mM EGTA, CsOH pH=7.3 and 130 mM NaCl, 5 mM KCl, 2 mM CaCl2), 1 mM MgCl2, 25 mM HEPES, 30 mM Glucose, pH=7.3, respectively.
Each peptide was diluted in the bath solution to the desired concentration (0.01 μM, 0.03 μM, 0.1 μM, 0.3 μM, 1 μM, 3 μM, or 10 μM), respectively.

HaCaT cells [2] = test: Cell death assay in HaCaT keratinocytes (Example 3); type: cell-based, human
Description: In an initial experiment, various concentrations of SOR-C13 and SOR-C27 were tested on human keratinocytes (HaCaT cells) for their ability to cause cell death. The negative control was Phosphate Buffered Saline (PBS) and the positive control was Glycolic Acid (20 mM), a known activator of TRPV3. At the concentrations used (10, 100 and 1000 μM) only the 1000 μM concentration produced a statistically significant increase in cell death over PBS (FIG. 6). […] The two peptides appeared to be indistinguishable in their activity with respect to the number of dead cells
Both peptides were dissolved in PBS at 30 mM concentration at ambient temperature based on the peptide content with a correction factor (SOR-C13 concentration was multiplied by 1.19, while SOR-C27 concentration was multiplied by 1.29). Stock solutions were sterilized by passing through a 0.2 μm syringe filter prewashed with PBS. Stocks of peptides were kept at −20° C. during the study.
Human immortalized keratinocyte HaCaT cells (Cat. #T0020001) were from Addexbio Technologies (San Diego, California, USA). In general, HaCaT cells were cultured in 37° C. CO2 incubator in DEME with 1.0 g/L glucose (Lonza, Cat #12-707F) with 10% FBS. Glutamine (2 mM), penicillin (100 I.U.) and streptomycin (100 μg/ml) were added to the media. Cells were sub-cultured twice per week using Trypsin-0.25% EDTA to detach cells.
HaCaT cells were plated at ˜8×10^5/well in each well of the 12-well tissue culture plates in triplicates in 2 ml culture media. Twenty-four (24) hours post-plating, cells were treated with PBS, or SOR-C13 at 10, 100 and 1000 μM, or SOR-C27 at 10, 100 and 1000 μM, or glycolic acid at 20 mM.
At 72 hours post-treatment, the incubation was terminated and supernatant was collected. Attached cells were washed with 2 ml PBS, and trypsinized. Suspension of cells was combined with supernatant and spun at 1000 g for 5 minutes. The cell pellet was then resuspended in 100 μl PBS for cell counting using trypan blue exclusion.
Student's t-test was used to compare the group treated with a test article vs. the group treated with PBS. Standard errors of mean (SEM) were used to represent variation of data.

HaCaT cells [3] = test: Wound healing (scratch gap closure) assay in HaCaT cells (Example 4); type: cell-based, human; conditions: 24 hours; for effect on migration of HaCaT cells through the scratch (words): 100 μM
Description: SOR-C13 and SOR-C27 were tested for their ability to promote tissue repair in a human keratinocytes (HaCaT) model of wound healing. In this model, cells are grown to confluency and then a gap is made in the sheet of cells by scratching the surface of the cells. After treating the cells for 24 hours, the closure of the gap, and the state of the cells in terms of polarization and mobility into the gap, are measured as a surrogate for activation of the wound healing response and the proliferation and/or migration of cells involved in tissue repair.
HaCaT cells were plated at 4×10^5 per well in 12-well tissue culture plates in MEGM Bullet Kit (Lonza, Cat. #CC-3150) containing bovine pituitary extracts (BPE), hEGF, insulin, and hydrocortisone. The total volume was 2 ml. About 24 hours later, a gap at the bottom of each well was generated by scratching with a sterile pipette tip. The supernatant was aspirated and cells were washed gently once with PBS. Fresh media (MEGM Bullet Kit, 2 ml) was added after the wash. Cells were treated in duplicates with PBS, or SOR-C13 at 10, 100 and 1000 μM, or SOR-C27 at 10, 100 and 1000 μM, and 100 μM valproic acid. After 24 hours, each well was examined under the microscope to semi-quantify the gap closure by cell migration. A digital camera fixed to the microscope was used to capture images of cells.
Under visual inspection, the wound healing results was scored as: • “−”: minimal cell polarization toward wound, no initiation of cell protrusion into the gap; no change in the wound gap; • “+”: cell polarization toward wound was observed; cell protrusion was observed; cell migration started but gap size is between 75 to 100% of original wound gap; • “++”: cell polarization toward the wound was observed; cell protrusion was observed; cell migration across the gap was observed, and gap size ≤½ of original wound gap; • “+++”: cell polarization toward wound was observed; cell protrusion was observed; cell migration across the gap was observed, and gap size ≤⅓ of original wound gap. Results

HaCaT cells [4] = test: Cell death assay in HaCaT cells with SOR-C13 fragments (Example 5); type: cell-based, human
Description: Solutions of each of the peptides listed in Table 2 were made based on formulation weight without correction of purity in PBS at a 100 mM stock concentration. Stock solutions were sterilized by passing through a 0.2 μm syringe filter prewashed with PBS. Stocks of peptides were kept in aliquots at −20° C. during the study. Glycolic acid was made in a 5M stock in PBS and filtered using a 0.2 μm syringe filter and kept at −20° C.
Human immortalized keratinocyte HaCaT cells were cultured as described in Example 3.
HaCaT cells were plated at ˜8×10^5/well in each well of the 12-well tissue culture plates in triplicates in 2 ml culture media. Twenty-four (24) hours post-plating, cells were treated with PBS, or peptide stocks at 100 and 1000 μM (in triplicates), or glycolic acid at 20 mM (single data point). The Cell Death Assay was otherwise performed as described in Example 3.

In the case of N.N.N.N.N.N.N.N.N.N.N.N.N.N.[Cl-].[Cl-].[Cl-].[Cl-].[Cl-].[Cl-].[O-2].[O-2].[Ru+3].[Ru+3].[Ru+4] [Ruthenium red], the “effect on activation of TRPV3 channel by 2-APB” value ([1]; control inhibitor, 100 μM 2-APB) is reported as “inhibited activation of the channel by 2-APB”.

In the case of CC(C)C[C@H](NC(=O)CNC(=O)CNC(=O)[C@H](CCC(=O)O)NC(=O)[C@@H](NC(=O)[C@H](CC(=O)O)NC(=O)[C@H](CC(N)=O)NC(=O)[C@H](CO)NC(=O)[C@H](CO)NC(=O)[C@H](CC(C)C)NC(=O)[C@H](CCCCN)NC(=O)CNC(=O)[C@@H](N)CCC(=O)O)[C@@H](C)O)C(=O)N[C@@H](CS)C(=O)N[C@@H](CCCCN)C(=O)N[C@@H](CCC(=O)O)C(=O)N[C@@H](Cc1ccccc1)C(=O)N[C@@H](CC(C)C)C(=O)N[C@@H](Cc1c[nH]cn1)C(=O)N1CCC[C@H]1C(=O)N[C@@H](CO)C(=O)N[C@@H](CCCCN)C(=O)N[C@H](C(=O)N[C@@H](CC(=O)O)C(=O)N[C@@H](CC(C)C)C(=O)N1CCC[C@H]1C(=O)N[C@@H](CCCNC(=N)N)C(=O)O)C(C)C [SOR-C27] (H-EGKLSSNDTEGGLCKEFLHPSKVDLPR-OH), the EC50 [1] is reported as 0.0941 µM, the “increase in cell death compared to PBS treatment” value (HaCaT cells [2]; 1 mM, 72-hour incubation) is reported as about 2 fold and the “induction of cell death compared to PBS” value (HaCaT cells [2]; 1 mM, 72 hours, p<0.05) is reported as “significantly induced cell death”. The “number of dead cells” value (HaCaT cells [2]; 1 mM, 72 hours, trypan blue exclusion) was 2.3×10^4 /well, the “induction of cell death compared to PBS” value (HaCaT cells [2]; 10 or 100 μM, 72 hours) was “no significant difference in the numbers of dead cells; also recorded: did not have a significant effect” and the “effect on migration of HaCaT cells over the tested concentrations” value (HaCaT cells [3]; 10, 100, 1000 μM) was “did not appear to exert a significant effect; also recorded: no significant visual difference; also recorded: had no clear effect on promoting migration”.

In the case of “SOR-N54: full length soricidin peptide, fifty-four amino acid paralytic peptide (DCSQDCAACSILARPAELNTETCILECEGKLSSNDTEGGLCKEFLHPSKVDLPR; Soricidin; UniProt P0C2P6 1-54, looked up)”, the “effect on TRPV3 channel activity / activation of TRPV3 by 2-APB” value ([1]; 10 μM peptide in the presence of 100 μM 2-APB) is reported as “did not show any effect; also recorded: did not alter the activation of TRPV3”.

With CCCC(CCC)C(=O)O [Valproic acid, reference compound] the “effect on migration of HaCaT cells through the scratch (words)” value (HaCaT cells [3]) was “appeared to block the migration” and the “effect on migration of HaCaT cells through the scratch (words)” value (HaCaT cells [3]; listed as valproic acid) was “did not appear to induce migration”.

In the case of SKVDLPR [SOR-C7], the “induction of cell death (words)” value (HaCaT cells [4]; 100 μM, 72 hours, p<0.05) is reported as “slight but significant increase of cell death”, the “induction of cell death (words)” value (HaCaT cells [4]; 100 μM, 72 hours, p<0.05, listed as C7) is reported as “significant cell death induction” and the “induction of cell death (words)” value (HaCaT cells [4]; 1000 μM, 72 hours, p<0.05) is reported as “slight but significant increase of cell death”.

O=C(O)CO [Glycolic acid, reference compound] was tested, and the “induction of cell death (words)” value (HaCaT cells [2]; 20 mM, 72 hours) was “dramatically induced cell death”, the “number of dead cells” value (HaCaT cells [2]; 20 mM, 72 hours) was ~9.1×10^4 per well and the “number of dead cells” value (HaCaT cells [4]; 20 mM, 72-hour treatment, single data point) was ~4.5×10^4 per well. For the same compound, the “induction of cell death above PBS” value (HaCaT cells [4]; 20 mM, 72 hours) was “no increase in cell death above the PBS treatment”.

HPSKVDLPR [SOR-C9] was tested, and the “induction of cell death (words)” value (HaCaT cells [4]; 100 μM, 72 hours, p<0.05) was “slight but significant increase of cell death” and the “induction of cell death (words)” value (HaCaT cells [4]; 100 μM, 72 hours, p<0.05, listed as C9) was “significant cell death induction”.
